Here are results for two substances from patent publication US20210290680A1, “METHODS AND COMPOSITIONS FOR MODULATING CELLULAR AGING” (Dorian Therapeutics, Inc., priority 2019, published 2021).

Common to all, as to type: cell-based, human
Series [1] relates to CHLA-55 cells. Description: CAR-T in vitro cytotoxicity assay, GD2.CAR T cells. Particulars: 1:5 E:T, 72 hours, n=3. On the procedure: (§1) Primary T cells were activated as described (Example 3), transduced with a lentivirus encoding for either a CD19.CAR or a GD2.CAR co-expressing shUSP16 #1, shUSP16 #2 or a scrambled shRNA (Control). Cells were cultured in IL-2 and sorted between days 6-13 for EGFRt. At day 16 cytotoxicity assays were performed. Briefly, cells were counted and 100,000 T cells (adjusted for EGFR expression) were plated at 1:5 Effector:Target (E:T) ratio. At 72 hours, the mixture of tumor cells and T cells were collected, stained for CD3-PE, CD8-BV510, CD19- or GD2-APC, EGFR-AF488 and Sytox and counted by flow cytometry (MACSQuant, Miltenyi Biotec) (FIGS. 30A and 30B). Counting beads (CountBright Absolute Counting beads, Invitrogen) were added before acquisition and absolute number was calculated as following (number of cell events/number of bead events)×(assigned bead count of the lot (beads/50 ul)/volume of sample (ul))=concentration of sample as cells/ul). NALM cells were used as target cells for CD19.CAR T cells and CHLA-55 cells were used as target for GD2.CAR T cells. Three different primary T cell cultures were tested for CD19 and GD2 CAR.

Series [2] deals with CD69. Put plainly: Exhaustion marker CD69 by flow cytometry. The settings on record: for CD69%: day 16, n=3; for reduction of exhaustion marker CD69 expression (shCtrl vs shRNA): primary T cells, day 20. Here is the method: Primary T cells were activated as described (Example 3), transduced with a lentivirus encoding either a shUSP16 #1, shUSP16 #2 or a non-targeting shRNA (shCtrl) and cells were selected with puromycin at day 6. At day 20, T cells were stained for CD69-Allophycocyanin (Biolegend) and T cells analyzed by MACSQuant (Miltenyi Biotec) (FIG. 19). Three primary T cell cultures were analyzed.
Primary T cells were activated as described (Example 3), transduced with a lentivirus encoding for either a CD19.CAR or a GD2.CAR co-expressing shUSP16 #1, shUSP16 #2 or a scrambled shRNA (Control). Cells were cultured in IL-2 and sorted between days 6-13 for EGFRt. At day 16, T cells were stained for exhaustion markers, including CD69.
A general note: Flow cytometry measures light scatter and fluorescence of single cells or particles in a stream.

The subject of series [3] is CHLA-55 cells. Put plainly: Re-challenge cytotoxicity assay, GD2.CAR T cells. Particulars: after double tumor-challenge, n=3. Here is the method: as §1
At day 16, regular cytotoxicity assays were also performed (Example 22). Three days post-antigen stimulation, CD19.CAR T cells were stained for EGFR-AF488 (R&D), CD3-PE, CD8-BV510, PD-1-Allophycocyanin and Lag-3 and CTLA4 (Biolegend) and acquired by MACSQuant (Miltenyi Biotec). The co-cultures we also re-challenged with the addition of fresh tumor cells. T cell killing and expansion upon double tumor-challenge was assessed after three days.

The subject of series [4] is TCF7. Put plainly: qPCR of WNT pathway regulator TCF7. The settings on record: for TCF7 expression, fold change vs Control: CD19.CAR; for TCF7 expression, fold change vs Control / TCF7 expression vs Control: day 15, n=4; for TCF7 expression vs Control: GD2.CAR; for TCF7 expression, fold increase over Control: primary T cells, day 15. From the text:
Primary T cells were activated as described (Example 3), transduced with a lentivirus encoding either a shUSP16 #1, shUSP16 #2 or a non-targeting shRNA (shCtrl) and cells were selected with puromycin at day 6. At day 15 cell were collected and analyzed by qPCR for the expression of LEF1 (FIG. 16A) and TCF7 (FIG. 16B), downstream regulators of the WNT pathway. At day 20, cells were stained for CD4-PE, CD8-BV510, CD62L-Allophycocyanin and CD45RA-APC-Cy7 (Biolegend). Stem cell memory T cells (Tscm) were identified as Sytox^− GFP^+CD45RA^+CD62L^+, central memory T cells (Tcm) as Sytox^−GFP^+CD45RA^−CD62L^+, effector memory T cells (Tem) as Sytox^−GFP^+CD45RA^−CD62L^−, and terminal effector T cell (Teff) as Sytox^−GFP^+CD45RA^+CD62L^− (FIG. 17A). Cells were gated on the CD8 population. The specific increase of Tscm was shown as phenotype ratio (FIG. 17B).
(§2) Primary T cells were activated as described (Example 3), transduced with a lentivirus encoding for either a CD19.CAR or a GD2.CAR co-expressing shUSP16 #1, shUSP16 #2 or a scrambled shRNA (Control). Fifteen days post-activation, T cells were collected and qPCR performed. TaqMan probes detecting CDKN1A, CDKN2A (FIGS. 26A and 26B) (fold change GD2.CAR (n=4): CDKN1A Control vs shUSP #1: 0.4360, p<0.0001, and Control vs shUSP16 #2: 3.036, p=0.004 respectively. Fold change CD19.CAR (n=4): CDKN2a, CDKN1A Control vs shUSP #1: 0.6906, p=0.0026; 0.7228, p=0.0297 and Control vs shUSP16 #2: 0.8385, p=0.2325; 0.7017, p=0.0021), TCF7, LEF1, and Axin-2 (FIGS. 27A and B) were analyzed in GD2.CAR and CD19.CAR-expressing cells, respectively. ACTB was used as internal control. (GD2.CAR (n=4) TCF7, LEF1 and Axin-2: Control vs shUSP #1: 1.914 p=0.0512; 1.795 p=0.0323; 3.269 p=0.15 and Control vs shUSP16 #2: 1.284 p=0.0494; 1.718 p=0.0586; 2.035p=0.235, respectively. Fold change CD19.CAR (n=4): TCF7, LEF1 and Axin-2: Control vs shUSP #1: 1.528, p=0.0277; 1.82, p=0.0449; 1.998, p=0.031 and Control vs shUSP16 #2: 1.18, p=0.2002; 1.579, p=0.0632; 1.261, p=0.2382). USP16 downregulation in CAR-T cells results in a decreased expression of senescence markers and an increase in the expression of genes associated with the activation/increased signaling of the WNT pathway, indicating its importance in delaying cellular senescence and increasing self-renewal.

The subject of series [5] is CDKN2A. Description: qPCR of senescence marker CDKN2A. The settings on record: CD19.CAR, day 15, n=4.
Description: as §2, with “USP16 downregulation in CAR-T cells results in a decreased expression of senescence markers and an increase in the expression of genes associated with the activation/increased signaling of the WNT pathway, indicating its importance in delaying cellular senescence and increasing self-renewal.” left out

In series [1], “shUSP16 #1: shRNA targeting USP16, 5′-GACTGTAAGACTGACAATAAA-3′ (SEQ ID NO: 8), pSIH backbone or co-expressed in CAR plasmid” displayed a CHLA-55 residual cells of 159531 and a T cell number of 79566. Also, the CD69% in series [2] (CD19.CAR) is reported as 13.70%. In addition, the CD69% in series [2] (GD2.CAR) is 23.05%. Besides, in series [2], the “reduction of exhaustion marker CD69 expression (shCtrl vs shRNA)” value came to 41%. In series [3], the CHLA-55 residual cells is 436500 and the T cell number is reported as 404709. In series [4], the “TCF7 expression, fold change vs Control” value is recorded as 1.528; the “TCF7 expression vs Control” value is given as 1.914; the “TCF7 expression, fold increase over Control” value is 2.804. Further, the “CDKN2a expression, fold change vs Control” value in series [5] was 0.6906.
In series [1], “shUSP16 #2: shRNA targeting USP16, 5′-TATATCAGTTCACCCGTAAT-3′ (SEQ ID NO: 9), pSIH backbone or co-expressed in CAR plasmid” had a CHLA-55 residual cells of 129186 and a T cell number of 194025. The CD69% in series [2] (CD19.CAR) is on record as 27.17%. This substance also showed a CD69% in series [2] (GD2.CAR) of 27.8%. Also, in series [2], the “reduction of exhaustion marker CD69 expression (shCtrl vs shRNA)” value is recorded as 40%. In series [3], this substance gave a CHLA-55 residual cells of 330610 and a T cell number of 722634. In series [4], the “TCF7 expression, fold change vs Control” value is 1.18; the “TCF7 expression vs Control” value was found to be 1.284; the “TCF7 expression, fold increase over Control” value is reported as 1.428. Also, the “CDKN2a expression, fold change vs Control” value in series [5] was found to be 0.8385.
